Experimental data as given in US7468449B2, “Phenyl-furan compounds as vitamin D receptor modulators” (Eli Lilly and Company, priority 2003, dated 2008).
“And” between values parts separate entries of the source, which are not always exact repeats. Equal entries are not always repeated. Where two headings read alike, the source gives them in different places.

How the values were obtained:
rat osteocalcin promoter = assay: OCN (osteocalcin) promoter assay; type: cell-based; details: RG-15 (ROS 17/2.8) cells, 48 hr treatment
Procedure: 3. The OCN (osteocalcin) Promoter Assay
The OCN Promoter Assay is an indicator and marker for osteoporosis. […] Preferred assay results are less than 50 nM.
(3) Materials and Method for The OCN Promoter Assay:
The activation of osteocalcin by VDR ligands was evaluated in a rat osteoblast-like cell line RG-15 (ROS 17/2.8) stably expressing rat osteocalcin promoter fused with luciferase reporter gene. […] After 24 hr, cells (in DMEM/F-12 medium +2% FBS) were treated with various concentrations of compounds, dissolved in DMSO. The final DMSO concentration remained at 0.01% (v/v). After 48 hr treatment, the medium was removed, cells were lysed with 50 μl of lysis buffer (From Luciferase reporter assay system, Roche Diagnostics, Indianapolis, Ind.) and assayed for luciferase activity using the Luciferase Reporter Gene Assay kit from Boehringer Mannheim as per manufacturer's specifications.

VDR = target: T1, VDR (Homo sapiens, UniProt P11473); assay: VDR CTF (Caco-2 cell co-transfection) assay; type: cell-based; details: Caco-2 cells, Gal-4-VDR-LBD co-transfection; Table 1
T1 construct: the receptor expression vector pGal-4-VDR-LBD (10 ng); expressed in transfected cells; host or cells: Caco-2 cells
T1 sequence (P11473 127-423 limits assumed): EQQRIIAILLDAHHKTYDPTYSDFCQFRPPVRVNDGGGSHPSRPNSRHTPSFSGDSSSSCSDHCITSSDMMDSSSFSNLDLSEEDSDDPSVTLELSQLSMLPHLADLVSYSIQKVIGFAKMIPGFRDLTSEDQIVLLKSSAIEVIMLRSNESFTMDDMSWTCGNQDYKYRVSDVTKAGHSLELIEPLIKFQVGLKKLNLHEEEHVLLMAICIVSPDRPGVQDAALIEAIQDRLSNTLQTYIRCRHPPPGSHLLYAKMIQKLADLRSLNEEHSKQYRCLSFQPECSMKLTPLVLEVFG
Procedure: 2. The Caco-2 Cell Co-transfection Assay:
The Caco-2 cell assay is an indicator for the undesirable condition of hypercalcemia. This co-transfection assay is a surrogate assay for in vivo calcemic activity of VDR ligands. […] Preferred assay results are greater than 1000 nM.
(§1) Step 4: FuGENE, DNA and Media Complex to-well plate • Add FuGENE-DNA-Media complex from step 3 to each plate • Incubate. […] Day 4: Luciferase Assay • Read the plates after drug treatment • Remove part of media from all the wells and leave remainder • Add Steady-Glo Luciferase Reagent mixture/wells • Incubate • Count each well using a Luminescence counter, Top Count NXT by Packard Set a delay between plates to reduce the background. (2) Materials and Method for The Caco-2 Cell Assay:
Caco-2 cells, grown in phenol red free, DMEM (Invitrogen, Carlsbad, Calif.) containing 10% charcoal-stripped FCS (Hyclone, Logan, Utah), were transfected with Fugene 6 reagent (Roche Diagnostics, Indianapolis, Ind.). Cells (5000/well) were plated 18 h before transfection in a 96 well plate. The Cells were transfected with Gal-4-responsive reporter pFRLuc (150 ng, Stratagene, La Jolla Calif.) and the receptor expression vector pGal-4-VDR-LBD (10 ng), along with Fugene 6 reagent (0.2 μl/well). The DNA-Fugene complex was formed by incubating the mixture for 30 min at room temperature. The cells were transfected in triplicate for 5 h, and treated with various concentrations of VDR ligands (form 0.01 nM to 10,000 nM concentration range) 18 h post-transfection. The luciferase activity was quantified using Steady-Glo reagent kit (Promega, Madison, Wis.) as per manufacturer's specifications.

KERtr cells = assay: Keratinocyte proliferation assay; type: cell-based, Human; details: BrdU incorporation
Procedure: 5. The Keratinocyte Proliferation Assay
This Assay is indicative for the treatment of psoriasis.
(5) The Keratinocyte Proliferation Assay:
KERtr cells (Human skin keratinocyte transformed with a retrovirus vector, obtained from ATCC) were plated in 96-well flat-bottomed plates (3000 cells/well) in 100 μl keratinocyte serum free medium supplemented with bovine pituitary extract in the absence of EGF (Life Technologies, Rockville, Md.) and incubated at 37° C. for two days. The cells were treated with various concentrations of VDR ligands (ten-fold serial dilution from 10,000 nM to 0.1 nM in triplicate), dissolved in 100 μl keratinocyte serum free medium supplemented with bovine pituitary extract in the absence of EGF and incubated at 37° C. for 72 hr. […] Potency values (IC50) values were determined as the concentration (nM) of compound that elicited a half-maximal response.

[1] = Mouse hypercalcemia assay; details: six day hypercalcemia test, oral gavage, serum ionized calcium
Procedure: The Mouse Hypercalcemia Assay
The Mouse Hypercalcemia Assay is a six day hypercalcemia test for toxicity and selectivity. Acceptable test results are levels greater than 300 μg/kg/day. Preferred assay results are levels greater than 1000 μg/kg/day.
(4) Materials and Method for The Mouse Hypercalcemia Assay:
Weanling, virus-antibody-free, five to six weeks old female DBF mice (Harlan, Indianapolis, Ind.) are used for all the studies. Animals are allowed to acclimate to local vivarium conditions for 2 days. […] The animals then are divided into groups with 4-5 mice per group. Different doses of test compounds prepared in 10% Ethanol and 90% sesame oil are administered to mice orally via gavage for 6 days. 1α-25(OH)2D3 0.5 μg/kg/d was also given to one group of mice as the positive control. […] Raw data of group differences is assessed by analysis of variance (ANOVA) using Fisher's protected least significant difference (PLSD) where the significance level was P<0.05.

RXR-VDR heterodimer = target: T2, RXR-VDR heterodimer (Homo sapiens, UniProt P11473); assay: RXR-VDR heterodimerization assay (SaOS-2 cells); type: cell-based; details: luciferase reporter, Table 1
T2 construct: Add the Gal-4-RXR-DEF and VP16-VDR-LBD; expressed in transfected cells; host or cells: SaOs-2 cells
T2 sequence (P11473 127-423 limits assumed): T1 sequence (P11473 127-423 limits assumed)
T2 sequence (P19793 201-462 partner limits assumed): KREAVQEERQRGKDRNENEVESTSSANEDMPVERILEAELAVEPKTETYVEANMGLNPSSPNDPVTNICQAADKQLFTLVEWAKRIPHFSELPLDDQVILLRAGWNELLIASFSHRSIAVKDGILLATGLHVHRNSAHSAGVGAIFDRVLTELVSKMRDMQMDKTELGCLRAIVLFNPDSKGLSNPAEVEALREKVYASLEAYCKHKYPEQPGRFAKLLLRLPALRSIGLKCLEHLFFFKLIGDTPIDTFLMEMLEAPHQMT
From the text: 1. The RXR-VDR Heterodimer Assay:
This assay provides the VDR activity of a test compound.
(1) Materials and Method for RXR-VDR Heterodimerization Assay:
Transfection/Treatment Media: • D-MEM Low Glucose Without Phenol Red only
Flat well Plates: • Use well plate to plate cells • Use Deep well plate sterile to make up treatment media.
Luciferase Assay Reagent: • Use Steady-Glo Luciferase Reagent from Promega (Cat #E2550) Consists of: • a. E2533 Assay Substrate, lyopholized product and • b. E2543 Assay Buffer. • Thaw at room temperature • Store Day 1: Cell Plating: • Cell Harvesting • Aspirate media from culture flask, rinse cells with HBSS and aspirate. • Add trypsin and incubate. • When cells appear detached, resuspend cells in growth media. • Transfer into a new flask with fresh growth media for passaging the cells. • Plate well plates and two extra plates A. Cell Count • Mix the cell suspension using pipette • Use Hematocytometer to count the cells • Load cell suspension onto the hemocytometer chamber • Count cells.
Step 1: DNA and Media • Add plain DMEM media to tubes for mixing the DNA • Add the Reporter gene pFR-LUC • Add the Gal-4-RXR-DEF and VP16-VDR-LBD
Step 2: FuGENE and Media • Prepare plain DMEM media in a ubes for mixing PuGENE • Add FuGENE 6 Transection Reagent • Incubate
Step 3: FuGENE, DNA and Media Complex • Add FuGENE Media complex from step 2 to DNA Media complex from step1 • Incubate
as §1, with “Assay: […]” for “Assay:”

[2] = Rattus norvegicus, 48 h, Table 1
[3] = 72 hr, Table 2, read-out: Kera. Prolif. IC50
[4] = Rattus norvegicus, 48 h, Table 3 comparison compounds
[5] = Homo sapiens, Keratinocyte, 72 h, Table 4 comparison compounds, read-out: Kera. Prolif. IC50

Structure (SMILES) | EC50 (VDR) [nM] | EC50 (rat osteocalcin promoter; Table 1) | IC50 (KERtr cells; [3]) [nM] | EC50 (RXR-VDR heterodimer) | also measured
CCC(CC)(c1ccc(OCC(O)C(C)(C)C)c(C)c1)c1ccc(C(=O)N(C)C)o1 (racemic) [Ex. 2, 3′-[4-(2-hydroxy-3,3-dimethylbutoxy)-3-methylphenyl]-3′-[5-dimethylaminocarbonyl-2-furanyl]pentane] | 25 |  |  |  | EC50 (rat osteocalcin promoter; [2]): 3 nM
CCC(CC)(c1ccc(OCC(O)C(C)(C)C)c(C)c1)c1ccc(C(=O)N(C)C)o1 (single isomer, unassigned) [Ex. 3, 3′-[4-(2-hydroxy-3,3-dimethylbutoxy)-3-methylphenyl]-3′-[5-dimethylaminocarbonyl-2-furanyl]pentane] | 391 | 4.6 nM and 2.5 nM | 1 |  | Mouse Hypercal ([1]; Table 1): >2000 µg/kg/day
CCC(CC)(c1ccc(OCC(O)C(C)(C)C)c(C)c1)c1ccc(C(=O)N(C)C)o1 (single isomer, unassigned) [Ex. 4, 3′-[4-(2-hydroxy-3,3-dimethylbutoxy)-3-methylphenyl]-3′-[5-dimethylaminocarbonyl-2-furanyl]pentane] | 333 | 2 nM and 1 nM | 4 |  | Mouse Hypercal ([1]; Table 1): >2000 µg/kg/day
CCc1cc(C(CC)(CC)c2ccc(C(=O)N(C)C)o2)ccc1OCC(O)C(C)(C)C (single isomer, unassigned; enantiomer 1) [Ex. 10, 3′-[4-(2-hydroxy-3,3-dimethyl-butoxy)-3-ethylphenyl]-3′-[5-dimethylaminocarbonyl-2-furanyl]pentane enantiomer 1] | 191 |  | 7 |  | Mouse Hypercal ([1]; Table 1): >1000 µg/kg/day
CCCc1cc(C(CC)(CC)c2ccc(C(=O)N(C)C)o2)ccc1OCC(O)C(C)(C)C (single isomer, unassigned; enantiomer 1) [Ex. 12, 3′-[4-(2-hydroxy-3,3-dimethyl-butoxy)-3-n-propyl-phenyl]-3′-[5-dimethylaminocarbonyl-2-furanyl]pentane enantiomer 1] | 187 |  | 17 | 188 nM | 
CCC(CC)(c1ccc(OCC(O)CO)c(C)c1)c1ccc(OCC(O)C(C)(C)C)c(C)c1 (centres unmarked) [BB, 3-(4-{1-Ethyl-1-[4-(2-hydroxy-3,3-dimethyl-butoxy)-3-methyl-phenyl]-propyl}-2-methyl-phenoxy)-propane-1,2-diol, reference compound] |  |  |  |  | EC50 (rat osteocalcin promoter; [4]): 8.24 nM; IC50 (KERtr cells; [5]): 10 nM; Mouse Hypercal μg/Kg/d ([1]; Table 3 comparison compounds): >=20 μg/Kg/d
Cc1cc(C2(c3ccc(OCC(=O)C(C)(C)C)c(C)c3)CCCCC2)ccc1OCC(=O)C(C)(C)C [CC, 1-(4-{1-[4-(3,3-Dimethyl-2-oxo-butoxy)-3-methyl-phenyl]-cyclohexyl}-2-methyl-phenoxy)-3,3-dimethyl-butan-2-one, reference compound] |  |  |  |  | EC50 (rat osteocalcin promoter; [4]): > 1000 nM
CCC(CC)(c1ccc(OCC(=O)C(C)(C)C)c(C)c1)c1ccc(OCC(=O)C(C)(C)C)c(C)c1 [DD, reference compound] |  |  |  |  | EC50 (rat osteocalcin promoter; [4]): 31.1 nM; IC50 (KERtr cells; [5]): 1060 nM; Mouse Hypercal ([1]; Table 3 comparison compounds): 1000 µg/kg/day
CCC(CC)(c1ccc(OCC(=O)C(C)(C)C)c(C)c1)c1ccc(OC[C@H](O)C(C)(C)C)c(C)c1 [EE, reference compound] |  |  |  |  | EC50 (rat osteocalcin promoter; [4]): 341 nM; Mouse Hypercal ([1]; Table 3 comparison compounds): 1000 µg/kg/day
CCN(CC)C(=O)c1ccc(C(CC)(CC)c2ccc(OCC(=O)C(C)(C)C)c(C)c2)o1 [Ex 7, 3′-[4-(2-oxo-3,3-dimethyl-butoxy)-3-methylphenyl]-3′-[5-diethylaminocarbonyl-2-furanyl]-pentane] |  | 95 nM | 23 |  | Mouse Hypercal ([1]; Table 1): >9000 µg/kg/day
CCC(O)(CC)COc1ccc(C(CC)(CC)c2ccc(C(=O)N(C)C)o2)cc1C [Ex 14, 3′-[4-(2-hydroxy-2-ethylbutoxy)-3-methylphenyl]-3′-[5-dimethylaminocarbonyl-2-furanyl]pentane] | 635 |  |  | 104 nM | EC50 (rat osteocalcin promoter; [2]): 101 nM
CCC(C)c1cc(C(CC)(CC)c2ccc(C(=O)N(C)C)o2)ccc1OCC(=O)C(C)(C)C (centres unmarked) [Ex. 5, 3′-[4-(2-oxo-3,3-dimethylbutoxy)-3-(2-butyl)phenyl]-3′-[5-dimethylaminocarbonyl-furan-2-yl]pentane] | 129 | 44 nM |  | 135 nM and 40 nM | EC50 (rat osteocalcin promoter; [2]): 33 nM; IC50 (KERtr cells; Homo sapiens, Keratinocyte, 72 h, Table 2, read-out: Kera. Prolif. IC50): 1000 nM
CCNC(=O)c1ccc(C(CC)(CC)c2ccc(OCC(=O)C(C)(C)C)c(C)c2)o1 [Ex. 6, 3′-[4-(2-oxo-3,3-dimethyl-butoxy)-3-methylphenyl]-3′-[5-ethylaminocarbonyl-2-furanyl]-pentane] | 315 | > 1000 nM | 112 | 320 nM | 
CCC(CC)(c1ccc(OCC(=O)C(C)(C)C)c(C)c1)c1oc(C(=O)N(C)C)cc1C [Ex. 8, 3′-[4-(2-oxo-3,3-dimethyl-butoxy)-3-methylphenyl]-3′-[5-dimethylaminocarbonyl-3-methyl-2-furanyl]-pentane] | 758 | 125 nM | > 1000 | 156 nM | 
